Reference: patent publication US10512631B2, “Chalcone compounds” (Beth Israel Deaconess Medical Center, Inc., priority 2015, dated 2019)

Assays:
Type in all cases: cell-based
[1] = tested on: PC3 (prostate cancer), A549 (lung cancer), CLR2119 and PAN02 (pancreatic cancer); assay: Crystal violet staining, four cancer cell lines; settings: range over four cell lines, 72 hours, 0.01-10 μM; highest efficiency in PC3; read-out: IC50, survival of cancer cells
Method: (§1) PC3 (provided by Dr. Steven Balk's laboratory in Department of Medicine at Beth Israel Deaconess Medical Center), PANC02 and CRL2119 (provided by Dr. Pankaja Seth's laboratory in Department of Medicine at Beth Israel Deaconess Medical Center), A549 (ATCC) cell lines were cultured according to manufacturer's protocols. Briefly, PC3 were cultured in RPMI medium supplemented with 10% FBS (Atlanta). PANC-2, A549 and CRL2119 were cultured in DMEM High medium supplemented with 10% FBS (Atlanta). Human bronchial epithelial cells (BEC) were cultured in Airway Epithelial Cell Basal Medium with the Bronchial Epithelial cell growth kit (ATCC) according to manufacturer's protocol and used at passages 3-5.
(§2) Cells were seeded at 5×10^3 concentration in 96 well plates and treated with test compounds or DMSO (0.001-10 μM) for 72 hours. Culture medium was removed and cells were stained with crystal violet solution (Sigma-Aldrich) for 15 minutes while shaking at room temperature. Crystal violet was then removed and cells were repeatedly washed in water. Attached cells stained with crystal violet were dried and then resuspended in 10% acetic acid. Absorbance was measured at 562 nm. The intensity of staining corresponded directly to the number of live cells.

STMN1 = STMN1 immunostaining and immunoblotting in PC3 cells; settings: PC3 cells, 0.01, 0.1 and 1 μM; 30 minutes, 1 hour, 24 hours
Method: (§3) Immunofluorescence and immunostaining on cell lines and tumor samples were performed as described in Wegiel et al, Cancer research 2013, 73(23), 7009-21. Anti-mouse STMN1, anti-P (Ser10)-Histone H3, and α-tubulin antibody were obtained from Cell Signaling. β-actin antibody was obtained from Sigma-Aldrich. Cells were treated with Compound 6 (1 μM) or DMSO for 48 hours. After immunofluorescence staining, the number of P-Histone H3 was quantified per field of view at 40× magnification using Zeiss Axiovert Microscope.
Snap-frozen tissue samples were homogenized in ice-cold tissue lysis buffer (250 mM NaCl, 5 mM EDTA, 1% Triton X-100, 10 mM Tris-HCl; pH 7.5) containing the protease inhibitor cocktail Complete Mini (Roche). For co-immunoprecipitation, 200 μg protein lysates in RIPA buffer and the protease inhibitor cocktail were mixed with appropriate antibodies and 30 μl Protein A/G Plus-agarose beads (Santa Cruz Biotechnology) and then rotated for 1 hour at room temperature. The proteins were washed with RIPA buffer and eluted (95° C., 5 min in SDS loading buffer). Immunoblotting was performed as previously described in Chin et al., Proc. Natl. Acad. Sci. USA 2007, 104(12), 5109-14. Antibodies: P (Ser967)-ASK1 (Cell Signaling), Ask1 (Cell Signaling), P-STMN1 (Ser16) (Cell Signaling), STMN1 (Cell Signaling), 13-Actin (Sigma) were used at 1:1000 dilution.

PC3 cells = assay: Immunostaining of α-tubulin and β-actin in PC3 cells; settings: 24 hours
Method: as §3, with “Cells were treated with Compound 6 (1 μM) or DMSO for 48 hours.” left out

PC3 [2] = assay: Cytoxicity / crystal violet staining, PC3; settings: average of triplicates, % of apoptotic cells vs DMSO controls, N.A. = not active at 10 μM
Method: as §1, §2

PC3 [3] = assay: Cytoxicity / crystal violet staining, PC3; settings: Homo sapiens, PC-3; 0.01-5 μM for 72 hours, n=4
[4] = tested on: PC3 cells transfected with siRNA against STMN1; assay: Crystal violet staining of PC3 cells transfected with siRNA against STMN1; settings: siRNA STMN1 vs control siRNA; 1 μM Compound 6, 1 μM Compound 7, 0.1 μM Compound 8, 72 hours
Method: as §2
siRNA against STMN1 and scramble siRNA were obtained from Darmacon (ONTARGET plus siRNA). PC3 cells were transiently transfected with siRNA against STMN1 or scramble siRNA using Lipofectamine 2000 (Invitrogen) as previously described in Wegiel et al., J. Biol. Chem. 2009, 7; 284(32):21369-78. Twenty four hours post-transfection, cells were split to 96 well plates and treated with test compounds for 72 hours. STMN1 levels were measured by immunoblotting to confirm successful knockdown.

A549 = assay: Cytoxicity / crystal violet staining, A549; settings: average of triplicates, % of apoptotic cells vs DMSO controls, N.A. = not active at 10 μM
Method: as §1, §2

Structure (SMILES): Cn1ccc2cc(/C=C3\CCc4ccc(F)cc4C3=O)ccc21 [Compound 6, (2E)-7-fluoro-2-[(1-methyl-1H-indol-5-yl)methylidene]-1,2,3,4-tetrahydronaphthalen-1-one]
- IC50 [1]: 0.14 to 0.3 µM
- STMN1 level by immunoblotting (STMN1): very early (30 minutes to 1 hour) stabilization of STMN1
- β-actin microfilament cytoskeleton (PC3 cells; 1 μM): disintegrated β-actin microfilament cytoskeleton
- microtubule stability (α-tubulin immunostaining) (PC3 cells; Compound 6 1 μM or docetaxel 20 nM): suppressed mitotic spindle formation, as well as accumulation of α-tubulin and microtubules
- Cytoxicity (% cell killing at 10 μM) PC3 (PC3 [2]): 49%
- IC50 (PC3 [3]): 0.147 µM
- cell death in response to compound in the absence of STMN1 [4]: attenuated in the absence of STMN1
- Cytoxicity (% cell killing at 10 μM) A549 (A549): 47%
